Laboratory results published in patent publication US12227482B2, “Compounds and compositions for the treatment of cancer” (The Regents of the University of California, priority 2016, dated 2025).

Legend:
Assay type in all cases: cell-based
Settings in all cases: 72 hours treatment, cell survival by CellTiter-Glo, 2% fetal bovine serum
[1] = tested on: LOX cells; experiment: Cell viability (CellTiter-Glo ATP content) in LOX cells
Experimental: (§1) Logarithmically growing A549, LOX and MelJuSo cells (ATCC) were plated in antibiotic-free RPMI medium (Coming) supplemented with 2% fetal bovine serum (Gemini Bio-products) at a density of 5,000 cells per well in clear-bottom 96-well plates. The next day cells were treated (triplicates) with increasing doses of a compound of the present disclosure (dissolved in DMSO) and DMSO vehicle controls (final DMSO concentration of 0.5%) for 72 hours and subsequently assessed for cell viability by measuring ATP content with CellTiter-Glo Luminescent Cell Viability Assay (Promega). Signal intensity was measured on a Glomax™ 96 Microplate Luminometer (Promega) and percent cell survival was calculated based on the reading of vehicle control cells set as 100%.

[2] = tested on: A549 cells; experiment: Cell viability (CellTiter-Glo ATP content) in A549 cells
Experimental: as §1

[3] = tested on: MelJuSo cells; experiment: Cell viability (CellTiter-Glo ATP content) in MelJuSo cells
Experimental: as §1

SMILES | IC50 ([1]; LOX, 72 h) | IC50 ([2]; Homo sapiens, A549, 72 h) | IC50 ([3]; Homo sapiens, MEL-JUSO) | IC50 [1] | IC50 [2] | IC50 [3]
CCCCC1C(c2ccc(F)cc2)=NN(c2ccccc2)C1(C)C(=O)NCC1CCCCC1 (stereo not drawn) [Compound 51, 4-butyl-N-(cyclohexylmethyl)-3-(4-fluorophenyl)-5-methyl-1-phenyl-4,5-dihydro-1H-pyrazole-5-carboxamide] | > 2 µM | > 2 µM | > 2 µM | – | – | –
CCCCC1C(c2ccc(F)cc2)=NN(c2ccccc2)C1(C)C(=O)N(C)Cc1cc(OC)cc(OC)c1 (stereo not drawn) [Compound 52, 4-butyl-N-(3,5-dimethoxybenzyl)-3-(4-fluorophenyl)-N,5-dimethyl-1-phenyl-4,5-dihydro-1H-pyrazole-5-carboxamide] | > 2 µM | > 2 µM | > 2 µM | – | – | –
CCCCC1C(c2ccc(Cl)cc2F)=NN(c2ccccc2)C1(C)C(=O)NCCCC(C)(C)CO (stereo not drawn) [Compound 53, 4-butyl-3-(4-chloro-2-fluorophenyl)-N-(5-hydroxy-4,4-dimethylpentyl)-5-methyl-1-phenyl-4,5-dihydro-1H-pyrazole-5-carboxamide] | > 2 µM | > 2 µM | > 2 µM | – | – | –
CCCCC1C(c2ccc(Cl)cc2F)=NN(c2ccccc2)C1(C)C(=O)NCCOC (stereo not drawn) [Compound 54, 4-butyl-3-(4-chloro-2-fluorophenyl)-N-(2-methoxyethyl)-5-methyl-1-phenyl-4,5-dihydro-1H-pyrazole-5-carboxamide] | > 2 µM | > 2 µM | > 2 µM | – | – | –
CCCCC1C(c2ccc(F)cc2)=NN(c2cccc(C)c2)C1(C)C(=O)NCCOC (stereo not drawn) [Compound 55, 4-butyl-3-(4-fluorophenyl)-N-(2-methoxyethyl)-5-methyl-1-m-tolyl-4,5-dihydro-1H-pyrazole-5-carboxamide] | < 0.25 µM | 0.25 to 0.5 µM | < 0.25 µM | – | – | –
CCCCC1C(c2ccc(F)cc2F)=NN(c2ccccc2)C1(C)C(=O)NCCCC(C)(C)CO (stereo not drawn) [Compound 56, 4-butyl-3-(2,4-difluorophenyl)-N-(5-hydroxy-4,4-dimethylpentyl)-5-methyl-1-phenyl-4,5-dihydro-1H-pyrazole-5-carboxamide] | 1 to 2 µM | > 2 µM | 0.5 to 1 µM | – | – | –
CCCCC1C(c2ccc(F)cc2F)=NN(c2ccccc2)C1(C)C(=O)NCCOC (stereo not drawn) [Compound 57, 4-butyl-3-(2,4-difluorophenyl)-N-(2-methoxyethyl)-5-methyl-1-phenyl-4,5-dihydro-1H-pyrazole-5-carboxamide] | 0.5 to 1 µM | 1 to 2 µM | 0.5 to 1 µM | – | – | –
CCCCC1C(c2ccc(Cl)cc2)=NN(c2ccccc2)C1(C)C(=O)NCCOC (stereo not drawn) [Compound 58, 4-butyl-3-(4-chlorophenyl)-N-(2-methoxyethyl)-5-methyl-1-phenyl-4,5-dihydro-1H-pyrazole-5-carboxamide] | 1 to 2 µM | > 2 µM | 1 to 2 µM | – | – | –
CCCCC1C(c2ccc(F)cc2)=NN(c2ccc(C)cc2)C1(C)C(=O)NCCOC (stereo not drawn) [Compound 59, 4-butyl-3-(4-fluorophenyl)-N-(2-methoxyethyl)-5-methyl-1-p-tolyl-4,5-dihydro-1H-pyrazole-5-carboxamide] | < 0.25 µM | 0.25 to 0.5 µM | < 0.25 µM | – | – | –
COCCNC(=O)C1(C)C(c2cccs2)C(c2ccc(F)cc2)=NN1c1ccc(F)cc1F (stereo not drawn) [Compound 60, 1-(2,4-difluorophenyl)-3-(4-fluorophenyl)-N-(2-methoxyethyl)-5-methyl-4-(thiophen-2-yl)-4,5-dihydro-1H-pyrazole-5-carboxamide] | < 0.25 µM | 0.25 to 0.5 µM | < 0.25 µM | – | – | –
CCCCC1C(c2ccc(F)cc2)=NN(c2cccc(C)c2)C1(C)C(=O)NCCCC(C)(C)CO (stereo not drawn) [Compound 61, 4-butyl-3-(4-fluorophenyl)-N-(5-hydroxy-4,4-dimethylpentyl)-5-methyl-1-m-tolyl-4,5-dihydro-1H-pyrazole-5-carboxamide] | 1 to 2 µM | > 2 µM | 0.5 to 1 µM | – | – | –
CCCCC1C(c2ccc(F)cc2)=NN(c2ccc(C)cc2)C1(C)C(=O)NCCCC(C)(C)CO (stereo not drawn) [Compound 62, 4-butyl-3-(4-fluorophenyl)-N-(5-hydroxy-4,4-dimethylpentyl)-5-methyl-1-p-tolyl-4,5-dihydro-1H-pyrazole-5-carboxamide] | – | – | – | 0.5 to 1 µM | > 2 µM | 0.25 to 0.5 µM
COCCNC(=O)C1(C)C(c2cccs2)C(c2ccc(F)cc2)=NN1c1ccc(C)cc1 (stereo not drawn) [Compound 63, 3-(4-fluorophenyl)-N-(2-methoxyethyl)-5-methyl-4-(thiophen-2-yl)-1-p-tolyl-4,5-dihydro-1H-pyrazole-5-carboxamide] | < 0.25 µM | 0.25 to 0.5 µM | < 0.25 µM | – | – | –
CCCCC1C(c2ccc(F)cc2)=NN(c2ccc(Cl)cc2F)C1(C)C(=O)NCCOC (stereo not drawn) [Compound 64, 4-butyl-1-(4-chloro-2-fluorophenyl)-3-(4-fluorophenyl)-N-(2-methoxyethyl)-5-methyl-4,5-dihydro-1H-pyrazole-5-carboxamide] | < 0.25 µM | 0.25 to 0.5 µM | < 0.25 µM | – | – | –
CCCCC1C(c2ccc(F)cc2)=NN(c2ccccc2)C1(C)C(=O)NCCCN1CCOCC1 (stereo not drawn) [Compound 65, 4-butyl-3-(4-fluorophenyl)-5-methyl-N-(3-morpholinopropyl)-1-phenyl-4,5-dihydro-1H-pyrazole-5-carboxamide] | > 2 µM | > 2 µM | > 2 µM | – | – | –
CCCCC1C(c2ccc(F)cc2)=NN(c2ccccc2)C1(C)C(=O)NCc1ccc(O)c(OC)c1 (stereo not drawn) [Compound 66, 4-butyl-3-(4-fluorophenyl)-N-(4-hydroxy-3-methoxybenzyl)-5-methyl-1-phenyl-4,5-dihydro-1H-pyrazole-5-carboxamide] | > 2 µM | > 2 µM | > 2 µM | – | – | –
CCCCC1C(c2ccc(F)cc2)=NN(c2ccccc2)C1(C)C(=O)NCc1cccs1 (stereo not drawn) [Compound 67, 4-butyl-3-(4-fluorophenyl)-5-methyl-1-phenyl-N-(thiophen-2-ylmethyl)-4,5-dihydro-1H-pyrazole-5-carboxamide] | > 2 µM | > 2 µM | > 2 µM | – | – | –
CCCCC1C(c2ccc(F)cc2)=NN(c2ccccc2)C1(C)C(=O)NCC1CCCCO1 (stereo not drawn) [Compound 68, 4-butyl-3-(4-fluorophenyl)-5-methyl-1-phenyl-N-((tetrahydro-2H-pyran-2-yl)methyl)-4,5-dihydro-1H-pyrazole-5-carboxamide] | 1 to 2 µM | > 2 µM | 0.5 to 1 µM | – | – | –
CCCCC1C(c2ccc(F)cc2)=NN(c2ccccc2)C1(C)C(=O)NC(C)c1ccc(S(C)(=O)=O)cc1 (stereo not drawn) [Compound 69, 4-butyl-3-(4-fluorophenyl)-5-methyl-N-(1-(4-(methylsulfonyl)phenyl)ethyl)-1-phenyl-4,5-dihydro-1H-pyrazole-5-carboxamide] | > 2 µM | > 2 µM | > 2 µM | – | – | –
CCCCC1C(c2ccc(F)cc2)=NN(c2ccccc2)C1(C)C(=O)NCCF (stereo not drawn) [Compound 70, 4-butyl-N-(2-fluoroethyl)-3-(4-fluorophenyl)-5-methyl-1-phenyl-4,5-dihydro-1H-pyrazole-5-carboxamide] | 1 to 2 µM | > 2 µM | 0.5 to 1 µM | – | – | –
CCCCC1C(c2ccc(F)cc2)=NN(c2ccccc2)C1(C)C(=O)NCCCN1CCCCC1 (stereo not drawn) [Compound 71, 4-butyl-3-(4-fluorophenyl)-5-methyl-1-phenyl-N-(3-(piperidin-1-yl)propyl)-4,5-dihydro-1H-pyrazole-5-carboxamide] | > 2 µM | > 2 µM | > 2 µM | – | – | –
CCCCC1C(c2ccc(F)cc2)=NN(c2ccccc2)C1(C)C(=O)NCC(C)(C)C (stereo not drawn) [Compound 72, 4-butyl-3-(4-fluorophenyl)-5-methyl-N-neopentyl-1-phenyl-4,5-dihydro-1H-pyrazole-5-carboxamide] | > 2 µM | > 2 µM | > 2 µM | – | – | –
CCCCC1C(c2ccc(F)cc2)=NN(c2ccccc2)C1(C)C(=O)NCC1CC1 (stereo not drawn) [Compound 73, 4-butyl-N-(cyclopropylmethyl)-3-(4-fluorophenyl)-5-methyl-1-phenyl-4,5-dihydro-1H-pyrazole-5-carboxamide] | 1 to 2 µM | > 2 µM | 1 to 2 µM | – | – | –
CCCCC1C(c2ccc(F)cc2)=NN(c2ccccc2)C1(C)C(=O)NCC(C)(C)N(C)C (stereo not drawn) [Compound 74, 4-butyl-N-(2-(dimethylamino)-2-methylpropyl)-3-(4-fluorophenyl)-5-methyl-1-phenyl-4,5-dihydro-1H-pyrazole-5-carboxamide] | > 2 µM | > 2 µM | > 2 µM | – | – | –
CCCCC1C(c2ccc(F)cc2)=NN(c2ccccc2)C1(C)C(=O)NCCC(C)N(C)C (stereo not drawn) [Compound 75, 4-butyl-N-(3-(dimethylamino)butyl)-3-(4-fluorophenyl)-5-methyl-1-phenyl-4,5-dihydro-1H-pyrazole-5-carboxamide] | > 2 µM | 0.5 to 1 µM | > 2 µM | – | – | –
CCCCC1C(c2ccc(F)cc2)=NN(c2ccccc2)C1(C)C(=O)NCC(C)N(C)C (stereo not drawn) [Compound 76, 4-butyl-N-(2-(dimethylamino)propyl)-3-(4-fluorophenyl)-5-methyl-1-phenyl-4,5-dihydro-1H-pyrazole-5-carboxamide] | > 2 µM | > 2 µM | > 2 µM | – | – | –
CCCCC1C(c2ccc(F)cc2)=NN(c2ccccc2)C1(C)C(=O)NCC(C)CN(C)C (stereo not drawn) [Compound 77, 4-butyl-N-(3-(dimethylamino)-2-methylpropyl)-3-(4-fluorophenyl)-5-methyl-1-phenyl-4,5-dihydro-1H-pyrazole-5-carboxamide] | > 2 µM | 0.25 to 0.5 µM | > 2 µM | – | – | –
